The source made the active and inactive calls.
How the values were obtained:
[1] = biological target: Eukaryotic translation initiation factor 4E (Mus musculus, UniProt P63073); assay: blockers of eIF4G binding by eIF4E – biochemical, TR-FRET, dose response (AID 855); type: functional;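 note: potency for disrupting eIF4E binding to eIF4GI seen as loss of FRET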
[2] = biological target: T1, DNA dC->dU-editing enzyme APOBEC-3A (Homo sapiens, UniProt P31941); assay: A3A deaminase inhibition for selectivity – biochemical, dose response (AID 504722); type: functional
Large T antigen = Large T antigen (Simian virus 40, UniProt P03070); type: functional, Betapolyomavirus macacae;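 note: Confirmatory-stage PubChem screen for compounds that inhibit SV40 T antigen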
[3] = biological target: T2, Voltage-gated N-type calcium channel alpha-1B subunit/Amyloid beta A4 precursor protein-binding family A member 1 (Homo sapiens, UniProt Q00975+Q02410); type: protein assay
[4] = biological target: T2, Voltage-gated N-type calcium channel alpha-1B subunit/Amyloid beta A4 precursor protein-binding family A member 1; type: protein assay; remark: listed apart in the source
Hexokinase-1 = biological target: T3, Hexokinase-1 (Homo sapiens, UniProt P19367); assay: HK1 enzyme activation by HKDC1 hits – biochemical, selectivity assay for HKDC1 activator project, dose response (AID 504762); type: functional
T3 sequence (P19367 whole entry): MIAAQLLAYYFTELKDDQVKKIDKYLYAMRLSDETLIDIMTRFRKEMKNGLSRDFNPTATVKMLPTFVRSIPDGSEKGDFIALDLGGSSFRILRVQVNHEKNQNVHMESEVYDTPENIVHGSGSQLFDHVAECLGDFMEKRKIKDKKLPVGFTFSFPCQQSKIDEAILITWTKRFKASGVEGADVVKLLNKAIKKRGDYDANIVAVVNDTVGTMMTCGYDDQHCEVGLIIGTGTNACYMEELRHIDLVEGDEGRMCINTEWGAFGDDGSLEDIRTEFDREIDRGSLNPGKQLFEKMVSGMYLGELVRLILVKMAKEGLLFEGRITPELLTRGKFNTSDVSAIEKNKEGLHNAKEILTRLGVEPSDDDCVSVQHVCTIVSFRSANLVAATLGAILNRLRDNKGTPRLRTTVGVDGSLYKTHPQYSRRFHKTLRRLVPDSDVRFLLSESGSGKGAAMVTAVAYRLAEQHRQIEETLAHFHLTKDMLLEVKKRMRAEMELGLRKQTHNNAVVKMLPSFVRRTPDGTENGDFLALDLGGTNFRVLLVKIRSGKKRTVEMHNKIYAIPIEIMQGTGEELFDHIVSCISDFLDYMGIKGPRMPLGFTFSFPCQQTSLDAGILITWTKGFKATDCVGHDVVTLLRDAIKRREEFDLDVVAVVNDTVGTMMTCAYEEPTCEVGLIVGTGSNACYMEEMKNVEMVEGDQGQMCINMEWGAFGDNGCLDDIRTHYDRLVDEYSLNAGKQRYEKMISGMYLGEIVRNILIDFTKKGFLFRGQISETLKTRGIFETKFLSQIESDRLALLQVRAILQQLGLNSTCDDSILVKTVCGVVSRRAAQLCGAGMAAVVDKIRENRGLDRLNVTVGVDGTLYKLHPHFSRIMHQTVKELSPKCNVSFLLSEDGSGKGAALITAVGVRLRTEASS

Hexokinase HKDC1 = biological target: T4, Hexokinase HKDC1 (Homo sapiens, UniProt Q2TB90); assay: inhibition of HKDC1 glucose phosphorylation – biochemical, W721R variant, dose response (AID 504729); type: functional
T4 sequence (Q2TB90 whole entry): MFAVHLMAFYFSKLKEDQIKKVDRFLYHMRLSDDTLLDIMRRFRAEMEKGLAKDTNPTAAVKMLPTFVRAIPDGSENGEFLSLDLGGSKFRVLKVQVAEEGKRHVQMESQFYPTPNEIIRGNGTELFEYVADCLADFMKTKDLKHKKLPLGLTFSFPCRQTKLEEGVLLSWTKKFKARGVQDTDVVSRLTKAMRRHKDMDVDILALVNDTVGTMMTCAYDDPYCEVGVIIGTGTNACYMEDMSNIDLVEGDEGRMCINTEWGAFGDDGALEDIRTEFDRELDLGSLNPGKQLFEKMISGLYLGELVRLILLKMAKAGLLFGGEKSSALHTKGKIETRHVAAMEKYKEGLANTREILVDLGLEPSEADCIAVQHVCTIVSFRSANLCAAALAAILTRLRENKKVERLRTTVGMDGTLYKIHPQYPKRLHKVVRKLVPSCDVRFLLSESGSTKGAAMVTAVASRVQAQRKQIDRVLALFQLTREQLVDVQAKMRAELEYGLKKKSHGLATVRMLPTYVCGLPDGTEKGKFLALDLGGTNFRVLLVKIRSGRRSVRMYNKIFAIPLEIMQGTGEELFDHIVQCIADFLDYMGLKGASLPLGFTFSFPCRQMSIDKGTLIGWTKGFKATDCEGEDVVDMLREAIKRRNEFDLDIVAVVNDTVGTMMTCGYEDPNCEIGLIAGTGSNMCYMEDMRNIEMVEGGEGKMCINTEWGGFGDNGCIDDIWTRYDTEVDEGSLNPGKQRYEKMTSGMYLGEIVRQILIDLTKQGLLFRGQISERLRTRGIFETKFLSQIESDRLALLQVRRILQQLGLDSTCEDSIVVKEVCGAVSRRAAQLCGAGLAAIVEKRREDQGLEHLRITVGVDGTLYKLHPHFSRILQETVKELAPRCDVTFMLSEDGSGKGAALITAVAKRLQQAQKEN

[5] = biological target: T5, Ubiquitin-conjugating enzyme E2 N (Homo sapiens, UniProt P61088); type: functional
T5 sequence (P61088 whole entry): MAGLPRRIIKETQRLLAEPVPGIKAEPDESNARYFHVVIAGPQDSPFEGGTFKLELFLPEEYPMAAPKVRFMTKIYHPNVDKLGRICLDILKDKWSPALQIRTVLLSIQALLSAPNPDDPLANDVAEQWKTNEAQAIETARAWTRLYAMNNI

[6] = biological target: T6, Rac GTPase-activating protein 1 (Homo sapiens, UniProt Q9H0H5); assay: blockers of MgcRacGAP-driven Rac1 GTP hydrolysis – biochemical, ADP Hunter fluorescence, primary and confirmatory, confirmation (AID 624330); type: functional
T6 sequence (Q9H0H5 whole entry): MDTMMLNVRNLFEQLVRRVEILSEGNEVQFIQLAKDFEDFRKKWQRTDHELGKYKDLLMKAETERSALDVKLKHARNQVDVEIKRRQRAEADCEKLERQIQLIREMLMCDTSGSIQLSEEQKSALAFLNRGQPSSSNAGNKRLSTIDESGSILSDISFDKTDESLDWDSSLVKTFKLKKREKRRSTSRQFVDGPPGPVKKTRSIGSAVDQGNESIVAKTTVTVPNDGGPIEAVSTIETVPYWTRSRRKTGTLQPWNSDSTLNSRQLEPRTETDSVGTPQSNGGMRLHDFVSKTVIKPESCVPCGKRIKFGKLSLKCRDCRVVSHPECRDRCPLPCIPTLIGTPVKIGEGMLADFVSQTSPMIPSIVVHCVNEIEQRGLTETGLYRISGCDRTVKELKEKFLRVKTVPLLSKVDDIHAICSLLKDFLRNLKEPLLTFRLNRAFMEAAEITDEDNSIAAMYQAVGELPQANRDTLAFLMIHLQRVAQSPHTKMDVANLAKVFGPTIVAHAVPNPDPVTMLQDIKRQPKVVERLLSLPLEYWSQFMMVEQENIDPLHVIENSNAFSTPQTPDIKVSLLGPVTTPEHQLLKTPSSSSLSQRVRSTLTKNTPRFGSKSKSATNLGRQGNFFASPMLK

Bcl-2-related protein A1 = Bcl-2-related protein A1 (Mus musculus, UniProt Q07440); type: functional;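 note: confirmatory dose–response counterscreen on Bfl-1, used to check hits from a UBC13 polyubiquitin inhibitor campaign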
[7] = biological target: T5, Ubiquitin-conjugating enzyme E2 N; type: functional; remark: listed apart in the source
[8] = biological target: T1, DNA dC->dU-editing enzyme APOBEC-3A; assay: Dose Response confirmation of small molecule APOBEC3A DNA Deaminase Inhibitors via a fluorescence-based single-stranded DNA deaminase assay. [Related pubchem assays (depositor defined):AID493011, AID493024]; type: functional
[9] = biological target: T7, DNA dC->dU-editing enzyme APOBEC-3G (Homo sapiens, UniProt Q9HC16); type: functional
cells [10] = type: functional
[11] = Vero E6 cell cytotoxicity, dose response, cytotoxicity control for non-replicating M. tuberculosis project, secondary assay (AID 492998); type: functional, VeroE6; conditions: Vero C1008
cells [12] = type: functional, cell-based
cells [13] = type: functional, cell-based; remark: listed apart in the source
[14] = microbe, parasite or virus in culture; type: functional; conditions: Mycobacterium tuberculosis
[15] = HepG2 cell cytotoxicity, dose response, cytotoxicity control for non-replicating M. tuberculosis project (AID 489018); type: functional; conditions: Mycobacterium tuberculosis
[16] = THP-1 cell cytotoxicity, dose response, cytotoxicity control for non-replicating M. tuberculosis project (AID 489025); type: functional
Nonstructural protein 1 = Nonstructural protein 1 (Influenza A virus, UniProt Q194T2); type: functional, Influenza A virus (A/California/07/2009(H1N1))
[17] = biological target: Eukaryotic translation initiation factor 4H (Homo sapiens, UniProt Q15056); assay: eIF4H binding inhibition – biochemical, uHTS, fluorescence polarization, translation initiation inhibitor project, primary screen (AID 2012)
[18] = biological target: Polyadenylate-binding protein 1 (Homo sapiens, UniProt P11940); assay: blockers of PABP interaction with poly(A) – biochemical, fluorescence polarization, […] (AID 2014)
[19] = biological target: T8, Corticotropin-releasing factor receptor 2/Corticotropin-releasing factor-binding protein (Homo sapiens, UniProt P24387+Q13324); assay: activators of CRF receptor 2 with binding protein – uHTS hits, confirmation (AID 602473); type: functional; conditions: read-out: EC50_Mean
T8 sequence (Q13324 whole entry): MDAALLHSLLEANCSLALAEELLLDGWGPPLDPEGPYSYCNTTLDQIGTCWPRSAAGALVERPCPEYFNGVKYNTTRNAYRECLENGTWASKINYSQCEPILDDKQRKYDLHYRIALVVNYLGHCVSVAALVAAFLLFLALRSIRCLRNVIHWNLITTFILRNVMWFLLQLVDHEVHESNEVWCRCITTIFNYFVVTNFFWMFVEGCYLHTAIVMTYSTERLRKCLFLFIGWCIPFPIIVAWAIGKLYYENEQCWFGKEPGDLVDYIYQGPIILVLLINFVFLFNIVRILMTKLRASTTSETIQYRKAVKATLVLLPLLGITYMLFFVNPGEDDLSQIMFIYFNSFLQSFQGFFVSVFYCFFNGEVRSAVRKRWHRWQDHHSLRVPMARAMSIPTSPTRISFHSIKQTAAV
T8 sequence (P24387 whole entry): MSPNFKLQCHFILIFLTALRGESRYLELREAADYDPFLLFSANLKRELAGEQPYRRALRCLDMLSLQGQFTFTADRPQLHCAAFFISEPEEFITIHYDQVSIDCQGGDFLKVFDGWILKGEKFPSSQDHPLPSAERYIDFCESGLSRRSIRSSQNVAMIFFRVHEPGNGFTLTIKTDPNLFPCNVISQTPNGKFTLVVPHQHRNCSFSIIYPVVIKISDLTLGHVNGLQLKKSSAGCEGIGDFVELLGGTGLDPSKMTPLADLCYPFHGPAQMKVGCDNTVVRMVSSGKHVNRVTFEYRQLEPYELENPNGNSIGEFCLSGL

[20] = biological target: T9, Runt-related transcription factor 1/Core-binding factor subunit beta (Homo sapiens, UniProt Q01196+Q13951); assay: disruptors of Runt domain/CBFb-SMMHC interaction – biochemical, FRET, Cerulean-Runt, Venus-CBFb-SMMHC, uHTS, […] (AID 1434); type: protein assay
Estrogen receptor beta = Estrogen receptor beta (Homo sapiens, UniProt Q92731);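 note: recombinant ER-beta bound to coactivator SRC1 peptide in presence of estradiol agonist; inhibitors block coactivator peptide binding and lower the FRET signal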
[21] = biological target: T9, Runt-related transcription factor 1/Core-binding factor subunit beta; assay: Runt domain/CBFb-SMMHC interaction disruptors – biochemical, TR-FRET (AID 1438); type: protein assay
[22] = biological target: T7, DNA dC->dU-editing enzyme APOBEC-3G; assay: Dose Response confirmation of small molecule APOBEC3G DNA Deaminase Inhibitors via a fluorescence-based single-stranded DNA deaminase assay. [Related pubchem assays (depositor defined):AID493012, AID493028]; type: functional

T1 sequence (P31941 whole entry): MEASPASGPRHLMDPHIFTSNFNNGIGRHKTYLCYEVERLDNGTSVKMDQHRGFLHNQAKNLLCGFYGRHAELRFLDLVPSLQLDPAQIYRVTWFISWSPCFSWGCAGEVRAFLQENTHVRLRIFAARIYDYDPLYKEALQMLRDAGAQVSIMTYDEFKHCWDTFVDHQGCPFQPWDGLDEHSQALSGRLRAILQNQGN
T7 sequence (Q9HC16 whole entry): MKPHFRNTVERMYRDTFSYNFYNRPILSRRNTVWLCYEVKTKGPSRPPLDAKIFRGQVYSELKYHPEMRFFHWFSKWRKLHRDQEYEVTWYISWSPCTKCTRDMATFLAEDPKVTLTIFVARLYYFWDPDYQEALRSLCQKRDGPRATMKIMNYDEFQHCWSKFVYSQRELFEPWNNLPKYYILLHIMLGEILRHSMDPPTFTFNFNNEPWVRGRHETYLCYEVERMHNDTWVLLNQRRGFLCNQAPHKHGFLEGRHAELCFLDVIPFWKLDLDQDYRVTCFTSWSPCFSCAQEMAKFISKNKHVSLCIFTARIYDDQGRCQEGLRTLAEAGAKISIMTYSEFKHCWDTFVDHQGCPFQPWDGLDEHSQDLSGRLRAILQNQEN
T9 sequence (Q01196 whole entry, the tested form may be a part): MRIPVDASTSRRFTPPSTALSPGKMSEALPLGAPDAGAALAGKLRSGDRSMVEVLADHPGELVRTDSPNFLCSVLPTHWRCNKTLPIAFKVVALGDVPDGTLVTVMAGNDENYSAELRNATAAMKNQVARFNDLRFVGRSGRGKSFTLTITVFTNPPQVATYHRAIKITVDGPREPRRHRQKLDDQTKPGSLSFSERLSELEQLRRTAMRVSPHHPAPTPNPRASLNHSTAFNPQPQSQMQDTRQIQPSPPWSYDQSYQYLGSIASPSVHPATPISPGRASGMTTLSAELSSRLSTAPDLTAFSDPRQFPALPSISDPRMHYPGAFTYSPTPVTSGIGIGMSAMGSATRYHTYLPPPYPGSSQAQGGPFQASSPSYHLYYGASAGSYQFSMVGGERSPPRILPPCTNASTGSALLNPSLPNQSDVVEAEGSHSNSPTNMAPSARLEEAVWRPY
T9 sequence (Q13951 whole entry, the tested form may be a part): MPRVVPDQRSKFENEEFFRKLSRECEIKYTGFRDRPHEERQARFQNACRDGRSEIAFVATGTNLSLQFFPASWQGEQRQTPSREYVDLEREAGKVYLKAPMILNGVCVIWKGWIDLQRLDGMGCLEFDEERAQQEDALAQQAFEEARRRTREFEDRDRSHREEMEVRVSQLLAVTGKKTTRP
Bcl-2-related protein A1, sequence (Q07440 whole entry): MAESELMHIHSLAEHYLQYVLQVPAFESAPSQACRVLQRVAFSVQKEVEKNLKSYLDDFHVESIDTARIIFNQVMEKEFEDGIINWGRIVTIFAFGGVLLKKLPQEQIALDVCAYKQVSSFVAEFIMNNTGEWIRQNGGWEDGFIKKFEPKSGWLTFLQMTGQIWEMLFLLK
T2 sequence (Q00975 whole entry): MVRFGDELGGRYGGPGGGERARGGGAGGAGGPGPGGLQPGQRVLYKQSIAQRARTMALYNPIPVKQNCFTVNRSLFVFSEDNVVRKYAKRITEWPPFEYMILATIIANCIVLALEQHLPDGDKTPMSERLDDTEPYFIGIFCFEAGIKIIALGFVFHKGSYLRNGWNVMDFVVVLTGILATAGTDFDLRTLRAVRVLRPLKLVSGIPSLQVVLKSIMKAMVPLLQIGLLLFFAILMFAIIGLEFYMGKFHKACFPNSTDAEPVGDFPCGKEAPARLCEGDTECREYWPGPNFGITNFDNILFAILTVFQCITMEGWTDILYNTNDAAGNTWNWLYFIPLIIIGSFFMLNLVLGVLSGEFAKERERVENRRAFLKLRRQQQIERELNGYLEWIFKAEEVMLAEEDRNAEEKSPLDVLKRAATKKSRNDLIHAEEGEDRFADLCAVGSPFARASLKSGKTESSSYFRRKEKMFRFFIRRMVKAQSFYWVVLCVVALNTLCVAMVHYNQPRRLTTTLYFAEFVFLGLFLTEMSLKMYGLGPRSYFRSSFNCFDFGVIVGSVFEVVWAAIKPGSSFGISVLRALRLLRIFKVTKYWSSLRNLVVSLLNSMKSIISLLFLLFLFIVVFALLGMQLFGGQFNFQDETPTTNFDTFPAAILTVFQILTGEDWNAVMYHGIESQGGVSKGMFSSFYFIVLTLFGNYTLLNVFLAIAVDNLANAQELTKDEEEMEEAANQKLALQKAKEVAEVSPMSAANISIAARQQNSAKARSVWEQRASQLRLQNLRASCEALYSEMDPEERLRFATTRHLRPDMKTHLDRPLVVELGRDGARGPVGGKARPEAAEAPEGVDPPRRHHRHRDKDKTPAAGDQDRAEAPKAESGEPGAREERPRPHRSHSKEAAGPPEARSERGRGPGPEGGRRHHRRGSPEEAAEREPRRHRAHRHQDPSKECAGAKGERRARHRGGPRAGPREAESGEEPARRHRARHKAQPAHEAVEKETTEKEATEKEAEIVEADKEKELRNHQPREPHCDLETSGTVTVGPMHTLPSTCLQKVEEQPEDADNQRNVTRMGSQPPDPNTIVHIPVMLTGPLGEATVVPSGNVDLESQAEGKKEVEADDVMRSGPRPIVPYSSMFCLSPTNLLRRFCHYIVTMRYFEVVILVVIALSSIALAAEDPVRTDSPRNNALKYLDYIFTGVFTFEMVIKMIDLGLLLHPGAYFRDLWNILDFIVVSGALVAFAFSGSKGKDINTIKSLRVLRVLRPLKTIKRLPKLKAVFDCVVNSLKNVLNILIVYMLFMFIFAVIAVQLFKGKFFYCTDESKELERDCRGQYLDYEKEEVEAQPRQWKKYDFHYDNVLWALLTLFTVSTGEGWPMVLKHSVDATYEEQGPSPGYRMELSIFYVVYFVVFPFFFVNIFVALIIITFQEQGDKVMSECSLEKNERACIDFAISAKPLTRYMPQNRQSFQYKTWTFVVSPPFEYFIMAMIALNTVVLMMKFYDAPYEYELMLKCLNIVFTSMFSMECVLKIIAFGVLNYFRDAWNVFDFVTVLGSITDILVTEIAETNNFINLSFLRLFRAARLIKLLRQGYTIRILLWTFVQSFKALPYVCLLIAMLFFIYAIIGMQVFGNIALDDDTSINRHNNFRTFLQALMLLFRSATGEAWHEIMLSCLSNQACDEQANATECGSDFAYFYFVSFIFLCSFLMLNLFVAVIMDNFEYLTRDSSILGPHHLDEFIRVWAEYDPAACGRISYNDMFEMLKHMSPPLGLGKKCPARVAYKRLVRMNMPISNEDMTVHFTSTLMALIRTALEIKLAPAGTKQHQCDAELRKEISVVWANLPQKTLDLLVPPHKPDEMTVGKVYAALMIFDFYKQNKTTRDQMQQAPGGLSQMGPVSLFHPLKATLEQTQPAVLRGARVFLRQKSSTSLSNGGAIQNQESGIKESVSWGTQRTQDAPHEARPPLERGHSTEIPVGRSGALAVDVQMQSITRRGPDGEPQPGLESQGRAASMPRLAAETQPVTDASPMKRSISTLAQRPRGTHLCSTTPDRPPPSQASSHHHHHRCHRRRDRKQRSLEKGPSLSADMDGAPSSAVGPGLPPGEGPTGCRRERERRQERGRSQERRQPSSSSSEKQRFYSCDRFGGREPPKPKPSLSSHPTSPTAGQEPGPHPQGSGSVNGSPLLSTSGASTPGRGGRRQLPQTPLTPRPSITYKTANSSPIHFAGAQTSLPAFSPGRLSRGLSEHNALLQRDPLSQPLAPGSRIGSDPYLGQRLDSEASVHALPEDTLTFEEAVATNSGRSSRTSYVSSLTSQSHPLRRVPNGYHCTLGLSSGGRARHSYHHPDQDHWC
T2 sequence (Q02410 whole entry): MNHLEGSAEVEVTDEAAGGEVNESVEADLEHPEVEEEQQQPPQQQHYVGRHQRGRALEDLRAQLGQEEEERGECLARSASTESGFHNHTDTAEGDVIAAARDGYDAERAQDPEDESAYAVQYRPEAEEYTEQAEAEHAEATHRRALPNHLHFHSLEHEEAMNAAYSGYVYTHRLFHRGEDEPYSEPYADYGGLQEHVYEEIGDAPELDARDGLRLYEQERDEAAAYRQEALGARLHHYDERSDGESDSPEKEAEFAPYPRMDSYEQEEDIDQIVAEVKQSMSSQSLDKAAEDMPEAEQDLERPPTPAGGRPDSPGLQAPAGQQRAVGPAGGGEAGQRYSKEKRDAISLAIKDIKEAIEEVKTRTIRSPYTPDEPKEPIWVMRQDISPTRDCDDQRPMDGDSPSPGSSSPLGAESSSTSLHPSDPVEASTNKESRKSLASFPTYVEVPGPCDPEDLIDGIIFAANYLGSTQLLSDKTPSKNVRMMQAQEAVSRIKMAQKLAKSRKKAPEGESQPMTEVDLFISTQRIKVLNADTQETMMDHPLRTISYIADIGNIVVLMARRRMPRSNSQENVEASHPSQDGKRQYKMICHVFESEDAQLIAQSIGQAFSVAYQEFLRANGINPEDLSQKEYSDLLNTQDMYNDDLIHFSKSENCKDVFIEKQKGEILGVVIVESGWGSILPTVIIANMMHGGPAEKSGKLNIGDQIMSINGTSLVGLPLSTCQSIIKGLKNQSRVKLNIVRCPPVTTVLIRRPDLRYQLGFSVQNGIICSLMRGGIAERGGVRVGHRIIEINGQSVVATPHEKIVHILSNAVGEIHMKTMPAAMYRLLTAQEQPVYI
Eukaryotic translation initiation factor 4E, sequence (P63073 whole entry): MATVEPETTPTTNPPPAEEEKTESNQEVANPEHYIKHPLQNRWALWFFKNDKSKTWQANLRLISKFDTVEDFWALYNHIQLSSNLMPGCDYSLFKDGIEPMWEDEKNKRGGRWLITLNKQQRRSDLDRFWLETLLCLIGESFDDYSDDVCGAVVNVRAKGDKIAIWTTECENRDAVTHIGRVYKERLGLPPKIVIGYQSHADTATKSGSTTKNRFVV
Nonstructural protein 1, sequence (Q194T2 whole entry): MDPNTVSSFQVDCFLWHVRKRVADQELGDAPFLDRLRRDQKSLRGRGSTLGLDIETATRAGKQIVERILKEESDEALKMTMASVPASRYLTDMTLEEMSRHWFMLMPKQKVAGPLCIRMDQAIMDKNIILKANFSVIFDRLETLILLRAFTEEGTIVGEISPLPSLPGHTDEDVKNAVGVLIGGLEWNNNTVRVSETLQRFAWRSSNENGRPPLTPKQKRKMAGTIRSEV

For `COc1ccc(N2CSC3=C(C#N)C(c4cccs4)CC(=O)N3C2)cc1` (centres undefined), the IC50 [1] was > 64 µM (inactive), the IC50 [2] was 74.1 µM (active) and the IC50 (Large T antigen) was 10.7 µM (active). For the same molecule, the IC50 [3] was 8.68 µM (active) and the IC50 [4] was > 50 µM (inactive).
With `O=C(c1ccccc1)c1nnc(-c2ccccc2)cc1O` the EC50 (Hexokinase-1) was > 80 µM (inactive) and the IC50 (Hexokinase HKDC1) was > 80 µM (inactive).
For `C#CCOCCOCCOCCNc1nc(N2CCN(C(=O)[C@H](CCCCN)n3cc([C@@H](N)C(C)CC)nn3)CC2)nc(N2CCN(C(=O)[C@H](CCCCN)n3cc([C@@H](N)CC(C)C)nn3)CC2)n1` (some centres undefined), the IC50 [5] was 7.14 µM (active), the IC50 [6] was 114 µM (active) and the IC50 (Bcl-2-related protein A1) was > 20 µM (inactive). For the same molecule, the IC50 [7] was 8.4 µM (active).
For `CC[n+]1cccc(-c2nc3ccccc3s2)c1`, the IC50 [8] was 3.65 µM (active) and the IC50 [9] was 3.66 µM (active).
For `COc1cc(/C=N\NC(=O)c2sc(N)nc2C)cc(OC)c1OC`, the IC50 [5] was 0.386 µM (active), the IC50 (Bcl-2-related protein A1) was > 20 µM (inactive) and the IC50 [7] was 0.477 µM (active).
For `CNc1nc(-c2ccccn2)nnc1-c1ccccc1`, the IC50 (cells [10]) was 11.1 µM (active), the CC50 [11] was 19.9 µM (active) and the EC50 (cells [12]) was > 350 µM (not active). The EC50 (cells [13]) was 12.8 µM (active), the CC50 [14] was 13.3 µM (active) and the CC50 [15] was > 20 µM (active). For the same molecule, the CC50 [16] was 19.1 µM (active) and the IC50 (Nonstructural protein 1) was 1.66 µM (active).
With `COC(=O)C1=C(C)N(Cc2ccccc2)C(NCCCCO)=N[C@H]1CCc1ccccc1` the IC50 [8] was 3.51 µM (active), the IC50 [9] was 5.42 µM (active) and the IC50 [17] was > 100 µM (inactive). The IC50 [18] was 18.9 µM (active).
In the case of `Cc1cccc(S(=O)(=O)c2c(N)n(Cc3ccco3)c3nc4ccccc4nc23)c1`, the EC50 [19] is reported as > 53 µM (inactive), the IC50 [20] is reported as > 100 µM (inactive) and the IC50 (Estrogen receptor beta) is reported as > 50 µM (not active). The IC50 [21] was > 100 µM (inactive).
For `Cc1cc(-c2nnc(S)n2/N=C/C=C/c2ccccc2)[nH]n1`, the IC50 [22] was 2.35 µM (active) and the IC50 [2] was > 100 µM (inactive).

Reference: ChEMBL document CHEMBL1201862, “PubChem BioAssay data set” (2004)
